In patent publication US8663934B2, “Cloned transmembrane receptor for 24-hydroxylated vitamin D compounds and uses thereof” (Shriners Hospital for Children, priority 2009, dated 2014):
Entries after “also recorded” stand apart in the source; their conditions may differ. Blank lines part the entries; values can stand above or below the molecule they belong to.

What was measured:
[1] = target: T1, 24-hydroxylated vitamin D compound receptor (FAM57B) (Mus musculus, UniProt Q7TNV1); assay: [3H]-24,25(OH)2D3 binding assay on membrane fractions of transfected COS-7 cells; conditions: for displacement of [3H]-24,25(OH)2D3 specific binding by excess cold compound: membrane fractions, excess of nonradioactive competitor; for specific binding of radioligand to receptor (saturation): membrane fractions of COS-7 cells expressing FAM57B
T1 construct: The full-length 24-hydroxylated vitamin D compound receptor was subcloned into the pcDNA3.1 expression vector; expressed in transfected cells; host or cells: COS-7 cells, stably transfected (pcDNA3.1)
T1 sequence (Q7TNV1 1-275 isoform Q7TNV1-3): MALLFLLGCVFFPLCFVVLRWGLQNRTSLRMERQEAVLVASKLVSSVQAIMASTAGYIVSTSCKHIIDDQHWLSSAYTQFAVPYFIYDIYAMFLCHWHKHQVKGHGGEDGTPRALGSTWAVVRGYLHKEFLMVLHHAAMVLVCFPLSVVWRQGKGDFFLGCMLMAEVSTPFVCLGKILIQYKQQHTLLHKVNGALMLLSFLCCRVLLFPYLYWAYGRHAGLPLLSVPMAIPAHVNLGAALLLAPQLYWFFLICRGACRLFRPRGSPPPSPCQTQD
Experimental: Membrane fractions of transfected COS-7 cells are prepared by differential centrifugation (66): cells are homogenized in buffer A (25 mM HEPES, 10 mM NaCl, 1 mM DTT at pH 7.4) and centrifuged at 20,000 g for 10 minutes. The resulting supernatant is then re-centrifuged at 20,000 g for 2×30 minutes. The resulting pellet is resuspended in buffer B (25 mM HEPES, 50 mM NaCl, 5 mM EDTA, 1 mM DTT at pH 7.4) and is used as a membrane fraction for binding assays.
Binding assays are performed on ice for 60 min in buffer B using [^3H]-24R,25(OH)2D3 (50 Ci/mmol; Amersham) in the presence or absence of a 200-fold excess of nonradioactive 24,25(OH)2D3. Bound and free ligand are separated by filtration on glass microfiber filters soaked in buffer B. The filters are rinsed with 10 ml of buffer B and are counted for radioactivity using a scintillation counter (36, 37, 66). Specific binding is then calculated as total binding minus non-specific binding measured in the presence of the excess of nonradioactive ligand.
Saturation binding analysis is performed using 100 μg of membrane fraction and 0.1 to 5 nM of [^3H]-24R,25(OH)2D3 and plotting specific binding as a function of ligand concentration (FIG. 4A). Saturation binding is repeated several times to minimize intra-assay variation and calculate binding affinity with accuracy. Affinity is determined using the saturation binding algorithm of the Prism software (GraphPad Software Inc., LaJolla, Calif.).
Binding specificity is further refined by performing competition binding assays on the membrane fractions with various nonradioactive vitamin D metabolites and other steroids (FIG. 4B). Binding is performed using 1 nM of [^3H]-24R,25(OH)2D3 and 100 μg of membrane fraction. Compete binding is done using 10-200 fold excess of 24,25(OH)2D3 (control displacement curve). Compete binding is also done using 10-200 fold excess of 25(OH)D3, 24S,25(OH)2D3 (the non-natural epimer of 24,25(OH)2D3), 1α(OH)D2, 1α,24(OH)D2, 1,24,25(OH)3D3, as well as dexamethasone, estradiol, and testosterone.

[2] = target: T2, 24-hydroxylated vitamin D compound receptor (Mus musculus, UniProt Q7TNV1); assay: Cellular dielectric spectroscopy (CellKey) in COS7 cells stably transfected with the receptor; assay type: cell-based; conditions: range of compound concentrations
T2 construct: The full-length 24-hydroxylated vitamin D compound receptor was subcloned into the pcDNA3.1 expression vector; expressed in transfected cells; host or cells: COS-7 cells, stably transfected (pcDNA3.1)
T2 sequence (Q7TNV1 1-275 isoform Q7TNV1-3): T1 sequence (Q7TNV1 1-275 isoform Q7TNV1-3)
Experimental: FIG. 4. Binding saturation and specificity of the 24-hydroxylated vitamin D compound receptor. A, B. The full-length 24-hydroxylated vitamin D compound receptor was subcloned into the pcDNA3.1 expression vector and expressed by stable transfection into COST cells. Membrane fractions were prepared by differential centrifugation and binding assays were performed using [^3H]-24,25(OH)2D3 in the presence or absence of an excess of nonradioactive 24,25(OH)2D3. Bound and free ligand were separated by filtration on glass microfiber filters. […] C, D. COS7 cells stably transfected with an expression vector for the 24-hydroxylated vitamin D compound receptor were plated in a cellular dielectric spectroscopy apparatus and changes in bioimpedance (dZiec), representative of binding, were measured over a range of compound concentrations. C. Response to vitamin D compounds. D. Response to steroids.
In certain embodiments of the present invention, cellular dielectric spectroscopy is used to ascertain binding specificity (124). The technology is based on applying electrical current to cells within a microplate format and measuring changes in impedance. […] The plate is installed onto the system to obtain a baseline reading. […]
Another method used to ascertain binding specificity is cellular dielectric spectroscopy (124). […] The plate is installed onto the system to obtain a baseline reading. […]

Cyp24a1-deficient mice = assay: Rescue of impaired fracture healing in Cyp24a1-deficient mice (tibial osteotomy); assay type: in vivo, mouse; conditions: for effect on fracture repair: daily subcutaneous injection, 24,25-(OH)2D3 6.7 μg/kg, 1α,25-(OH)2D3 67 ng/kg
Experimental: FIG. 2: rescue of impaired fracture repair in Cyp24a1-deficient mice by treatment with 24,25-(OH)2D3. Osteotomy was performed and animals from each genotype were treated daily with vehicle, 1,25-(OH)2D3 (67 ng/kg) or 24,25-(OH)2D3 (6.7 ug/kg). The fracture callus was harvested at 14 days post-osteotomy and bone volume (BV) and tissue volume (TV) were measured by histomorphometry using the BioQuant Osteo image analysis software. WT, wild-type; cyp24a1−/−, mutant mice deficient for the Cyp24a1 gene.
A Cyp24a1-deficient mouse strain was used to determine the role of 24-hydroxylated vitamin D compounds during mammalian fracture repair. In wild-type mice, there is a significant increase in local expression of Cyp24a1 mRNA in the tibiae subjected to an osteotomy as compared to the unfractured contralateral tibiae. To identify the role of this change in gene expression on callus formation, four-month-old wild-type and Cyp24a1-deficient mice were subjected to a stabilized, transverse mid-diaphysial fracture of the tibia. Bones were collected at days 14 and 21 post-fracture and analyzed for histology and gene expression.
Control groups were injected with the vehicle (propylene glycol). […] Daily injection with 24,25-(OH)2D3 normalized the histological appearance of the callus and the measured static histomorphometric index (BV/TV, FIG. 2).

ATF response element = ATF response element luciferase reporter (Cignal AARE) in receptor-transfected COS7 cells; assay type: cell-based; conditions: saturating dose
Experimental: FIG. 5. Activation of the ATF response element following binding of 24,25(OH)2D to the 24-hydroxylated vitamin D compound receptor. COS7 cells stably transfected with an empty expression vector (vector) or with an expression vector for the 24-hydroxyvitamin D compound receptor (24,25(OH)2D rep) were transiently transfected with a reporter construct in which the luciferase reporter is under the control of an ATF response element. Transfected cells were then treated with ethanol (vehicle) or a saturating dose of 24,25(OH)2D. A renilla luciferase constitutive expression vector was co-transfected to assess efficiency of […]. Results (mean±SEM) are expressed as fold-induction over treatment with vehicle.
In certain embodiments of the present invention where the Cignal Finder reporter system is employed, COS-7 cells stably transfected with the 24-hydroxylated vitamin D compound receptor are seeded in 24-well tissue culture plates (Nunc, Roskilde, Denmark) at a density of 20,000 cells per well in growth medium (high-glucose DMEM with HEPES, 10% FBS, and 400 μg/ml of Geneticin). […] The activity of firefly and renilla luciferases are measured sequentially on a Sirius Luminometer (Berthold Detection Systems GmbH, Pforzheim, Germany). The specific luciferase activity is expressed as the ratio of firefly/renilla luciferase activity. […]

chickens = conditions: chick fracture, treatment with metabolite alone; cited from earlier work
rats = conditions: cited from earlier work
wild-type mice = conditions: cited from earlier work
rat = rat studies; cited from earlier work

Molecule: C=C1CC[C@H](O)C/C1=C/C=C1\CCC[C@]2(C)[C@@H]([C@H](C)CC[C@@H](O)C(C)(C)O)CC[C@@H]12 [24,25-(OH)2D3]
- displacement of [3H]-24,25(OH)2D3 specific binding by excess cold compound [1]: can be displaced
- changes in bioimpedance (dZiec), representative of binding [2]: specifically binds
- changes in bioimpedance (dZiec), representative of binding ([2]; listed as 24R,25(OH)2D3): binding activity specific
- type X collagen mRNA expression (Cyp24a1-deficient mice; all time points studied): rescued and normalized
- histological appearance of the callus (Cyp24a1-deficient mice; daily injection 6.7 μg/kg): normalized
- static histomorphometric index (BV/TV) (Cyp24a1-deficient mice; daily injection 6.7 μg/kg, callus at 14 days post-osteotomy): normalized
- effect on fracture repair (Cyp24a1-deficient mice): rescue; also recorded: corrected
- effect on fracture repair (Cyp24a1-deficient mice; listed as 24,25(OH)2D3): rescued
- luciferase reporter fold-induction over treatment with vehicle (ATF response element): statistically significant

Molecule: C=C1/C(=C\C=C2/CCC[C@]3(C)[C@@H]([C@H](C)CCCC(C)(C)O)CC[C@@H]23)C[C@@H](O)C[C@@H]1O [1α,25-(OH)2D3, reference compound]
- effect on fracture repair (Cyp24a1-deficient mice): no effect
- healing (mechanical properties of healed bones) (chickens): poor healing

Molecule: CC(C)NCC(O)COc1cccc2ccccc12 (centres unmarked) [propranolol]
- bone defects (rats): repair bone defects
- bone mass (wild-type mice): increase bone mass

B1: parathyroid hormone (protein, UniProt P01270 32-115, looked up)
Parathyroid hormone: SVSEIQLMHNLGKHLNSMERVEWLRKKLQDVHNFVALGAPLAPRDAGSQRPRKKEDNVLVESHEKSLGEADKADVNVLTKAKSQ
modifications: Parathyroid hormone
notes: parathyroid hormone administered in rat fracture studies
- fracture repair (rat): improve fracture repair

Results, then the molecule that gave them:

- specific binding of radioligand to receptor (saturation) [1]: specific and saturable
- specific binding of radioligand to receptor (saturation) ([1]; listed as [^3H]-24,25(OH)2D3): saturable
Molecule: [^3H]-24R,25-(OH)2D3

- displacement of [3H]-24,25(OH)2D3 specific binding by excess cold compound [1]: not
Molecule: CC(=O)[C@H]1CC[C@H]2[C@@H]3CCC4=CC(=O)CC[C@]4(C)[C@H]3CC[C@]12C [progesterone]
